Source: patent US4895852A, “Antitumor alkaloids” (Harbor Branch Oceanographic Institution, Inc., priority 1987, dated 1990)
In brackets after ≈: the same amount, converted by molar mass.

Test system: P388 mouse leukemia cells
Assay: P388 mouse leukemia cell assay
Type: cell-based
Conditions: for minimal effective concentration: P388, 48 h, summary sentence on Table 1, mouse leukemia cells, read-out: good antitumor activity at concentrations of at least (against mouse leukemia cells); for IC50: P388 mouse leukemia cells, 48 hours, 37°, 10% CO2
Method: P388 mouse leukemia cells are grown in Dulbecco MEM medium with 10% horse serum, 4mM glutamine, and 20ug/ml gentamycin (Biologos, Inc.). Cells are incubated in 10% CO2 and subcultured 2 times per week.
1. Add compound to each well of a 24-well plate or tube and allow solvent to evaporate to dryness.
2. Add 2ml (1.2×10^5) cells to each well or tube and mix.
3. Incubate in 10% CO2 , at 37° for 48 hours.
4. Read platees with an inverted microscope, scoring activity from 1+ to 4+ as follows: ND (not detectable), >90%; 1+, 75-90%; 2+, 50-74%; 3+, 25-49%; 4+, <25% of control growth. Cell counts are performed on each tube and results are reported as percent of control. Alternatively, scoring may be expressed as IC50 which represents the minimum concentration of the composition required to inhibit 50% of the cell growth on the plate. […]

Row | SMILES | minimal effective concentration [µg/mL] | IC50 [µg/mL]
1 | O=C1CCCN2C(CC1)CC13CN4CCCCC=CCCC(O)(C=C(c5nccc6c5[nH]c5ccccc56)C1CC4)C23 (stereo not shown) [Manzamine E] | ≥ 5 | 5 (≈ 8.85 µM)
2 | O=C1CCCN2[C@@H](CC1)C[C@]13CN4CCCC/C=C\CC[C@](O)(C=C(c5nccc6c5[nH]c5c(O)cccc56)C1CC4)[C@H]23 (stereo partly shown) [Manzamine F] | ≥ 5 | 5 (≈ 8.61 µM)
